Measured values reported in patent US11524966B1 (Valo Early Discovery, Inc., priority 2017, dated 2022).

Molecular target: T1, USP28 (His-tagged USP28-FL-mammalian) (Homo sapiens, UniProt Q96RU2)
T1 construct: Expression of USP28 (1-1077)-TEV-6*His (pTT5 vector); made in house; host or cells: Expi293f cells (pTT5 vector)
T1 sequence (Q96RU2 1-1077): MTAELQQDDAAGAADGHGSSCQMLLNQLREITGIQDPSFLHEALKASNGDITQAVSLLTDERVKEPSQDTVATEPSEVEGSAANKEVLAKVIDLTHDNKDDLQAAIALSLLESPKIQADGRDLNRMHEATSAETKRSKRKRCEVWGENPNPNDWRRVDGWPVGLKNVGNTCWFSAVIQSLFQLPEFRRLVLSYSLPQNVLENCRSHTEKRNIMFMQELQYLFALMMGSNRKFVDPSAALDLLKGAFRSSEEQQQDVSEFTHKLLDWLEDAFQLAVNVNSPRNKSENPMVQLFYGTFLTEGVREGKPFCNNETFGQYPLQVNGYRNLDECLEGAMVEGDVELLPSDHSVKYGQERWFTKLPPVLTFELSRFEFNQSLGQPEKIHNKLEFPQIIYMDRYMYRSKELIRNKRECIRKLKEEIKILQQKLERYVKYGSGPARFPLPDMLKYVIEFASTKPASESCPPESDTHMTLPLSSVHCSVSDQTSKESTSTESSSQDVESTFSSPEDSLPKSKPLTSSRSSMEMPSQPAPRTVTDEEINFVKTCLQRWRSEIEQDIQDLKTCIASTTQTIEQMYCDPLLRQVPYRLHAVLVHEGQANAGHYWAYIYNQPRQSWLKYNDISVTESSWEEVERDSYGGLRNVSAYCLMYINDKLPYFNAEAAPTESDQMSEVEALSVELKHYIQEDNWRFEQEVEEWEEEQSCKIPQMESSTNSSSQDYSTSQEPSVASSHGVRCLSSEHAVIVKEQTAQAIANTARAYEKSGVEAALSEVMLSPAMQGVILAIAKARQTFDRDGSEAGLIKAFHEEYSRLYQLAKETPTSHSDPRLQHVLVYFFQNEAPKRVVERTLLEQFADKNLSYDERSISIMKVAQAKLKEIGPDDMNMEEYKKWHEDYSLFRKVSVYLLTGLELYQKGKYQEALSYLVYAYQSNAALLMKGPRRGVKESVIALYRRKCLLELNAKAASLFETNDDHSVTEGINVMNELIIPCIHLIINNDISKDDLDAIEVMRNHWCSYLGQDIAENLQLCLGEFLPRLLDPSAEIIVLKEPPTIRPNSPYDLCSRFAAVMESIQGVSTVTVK
Experiment: Ubiquitin-Rhodamine 110 Assay for USP28 Activity, Example A-1(a)
Type: biochemical
Conditions: Ubiquitin-Rhodamine 110 assay, Example A-1(a); read-out: USP28 A-1(a) IC50 range
How it was run: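 IC50 from 4-parameter logistic fit of percent inhibition versus no-enzyme and DMSO controls; compounds 25 μM to 1.3 nM, 3-fold. Ub-Rh110 cleavage (25 nM, below Km) by […] mammalian-expressed USP28-FL-His ran 45 min at room temperature, stopped with 10 mM citric acid, read ex 485/em 535.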

SMILES	IC50
Cc1ccc2c(N)c(C(=O)N[C@H]3CCc4nc(N5C[C@@H](N)[C@@H](C(F)F)C5)ccc4C3)sc2n1 [Example 346, 3-amino-N-[(6S)-2-[(3S,4S)-3-amino-4-(difluoromethyl)pyrrolidin-1-yl]-5,6,7,8-tetrahydroquinolin-6-yl]-6-methylthieno[2,3-b]pyridine-2-carboxamide]	50 to 200 nM
Cc1ccc2c(N)c(C(=O)N[C@H]3CCc4nc(N5C[C@H](C(F)F)[C@@H](N)C5)ccc4C3)sc2n1 [Example 347, 3-amino-N-[(6S)-2-[(3R,4S)-3-amino-4-(difluoromethyl)pyrrolidin-1-yl]-5,6,7,8-tetrahydroquinolin-6-yl]-6-methylthieno[2,3-b]pyridine-2-carboxamide]	50 to 200 nM
COC[C@@H]1CN(c2ccc3c(n2)OC[C@H](NC(=O)c2sc4nc(C)cc(C)c4c2N)C3)C[C@@H]1N [Example 348, 3-amino-N-[(3R)-7-[(3R,4R)-3-amino-4-(methoxymethyl)pyrrolidin-1-yl]-2H,3H,4H-pyrano[2,3-b]pyridin-3-yl]-4,6-dimethylthieno[2,3-b]pyridine-2-carboxamide]	50 to 200 nM
COC[C@H]1CN(c2ccc3c(n2)OC[C@H](NC(=O)c2sc4nc(C)cc(C)c4c2N)C3)C[C@H]1N [Example 349, 3-amino-N-[(3R)-7-[(3S,4S)-3-amino-4-(methoxymethyl)pyrrolidin-1-yl]-2H,3H,4H-pyrano[2,3-b]pyridin-3-yl]-4,6-dimethylthieno[2,3-b]pyridine-2-carboxamide]	50 to 200 nM
CN[C@H]1CN(c2ccc3c(c2)OC[C@H](NC(=O)c2sc4nc(C)ccc4c2N)C3)C[C@@H]1O [Example 350, 3-amino-N-[(3R)-7-[(3S,4S)-3-hydroxy-4-(methylamino)pyrrolidin-1-yl]-3,4-dihydro-2H-1-benzopyran-3-yl]-6-methylthieno[2,3-b]pyridine-2-carboxamide]	50 to 200 nM
CCn1ccc2cc(C(=O)N[C@H]3CCc4nc(N5C[C@H](OC)[C@@H](N)C5)ccc4C3)cnc21 [Example 353, N-[(6S)-2-[(3S,4S)-3-amino-4-methoxypyrrolidin-1-yl]-5,6,7,8-tetrahydroquinolin-6-yl]-1-ethyl-1H-pyrrolo[2,3-b]pyridine-5-carboxamide]	200 to 2000 nM
Cc1cc(C)c2c(N)c(C(=O)N[C@H]3CCc4nc(N5CC6CCC(C5)N6)ccc4C3)sc2n1 [Example 354, 3-amino-N-[(6S)-2-{3,8-diazabicyclo[3.2.1]octan-3-yl}-5,6,7,8-tetrahydroquinolin-6-yl]-4,6-dimethylthieno[2,3-b]pyridine-2-carboxamide]	1 to 50 nM
CCn1cc(Cl)c2cc(C(=O)N[C@H]3COc4c(F)c(N5CC6CCC(C5)N6)cc(F)c4C3)nnc21 [Example 355, 5-chloro-N-[(3R)-7-{3,8-diazabicyclo[3.2.1]octan-3-yl}-5,8-difluoro-3,4-dihydro-2H-1-benzopyran-3-yl]-7-ethyl-7H-pyrrolo[2,3-c]pyridazine-3-carboxamide]	50 to 200 nM
CCn1cc(Cl)c2cc(C(=O)N[C@H]3COc4c(C#N)c(N5CC6CCC(C5)N6)cc(F)c4C3)nnc21 [Example 356, 5-chloro-N-[(3R)-8-cyano-7-{3,8-diazabicyclo[3.2.1]octan-3-yl}-5-fluoro-3,4-dihydro-2H-1-benzopyran-3-yl]-7-ethyl-7H-pyrrolo[2,3-c]pyridazine-3-carboxamide]	200 to 2000 nM
Cc1ccc2c(N)c(C(=O)N[C@H]3CCc4nc(N5C[C@H](N)[C@H](OC(C)(F)F)C5)ccc4C3)sc2n1 [Example 357, 3-amino-N-[(6S)-2-[(3S,4R)-3-amino-4-(1,1-difluoroethoxy)pyrrolidin-1-yl]-5,6,7,8-tetrahydroquinolin-6-yl]-6-methylthieno[2,3-b]pyridine-2-carboxamide]	50 to 200 nM
Cc1ccc2c(N)c(C(=O)N[C@H]3CCc4nc(N5C[C@@H](N)[C@@H](OC(C)(F)F)C5)ccc4C3)sc2n1 [Example 358, 3-amino-N-[(6S)-2-[(3R,4S)-3-amino-4-(1,1-difluoroethoxy)pyrrolidin-1-yl]-5,6,7,8-tetrahydroquinolin-6-yl]-6-methylthieno[2,3-b]pyridine-2-carboxamide]	200 to 2000 nM
